US20240316012A1, “METHODS FOR TREATING LYMPHOMA” (Northwestern University, priority 2023, published 2024)

Assays:
ITK-SYK^+PD-1− cells = assay: Lactate production of ITK-SYK+PD-1− cells incubated with small molecule inhibitors; assay type: cell-based, mouse; conditions: ITK-SYK+PD-1− cells in vitro; FIGS. 10A-C
Procedure: Cell culture. Unless otherwise indicated, murine cells were cultured in DMEM containing 20% FCS. The following compounds were used for the in vitro experiments: glycolysis inhibitor 2-deoxy-D-glucose (D8375, Sigma), mTOR inhibitor Torin-1 (S2827, Selleckchem), HIF1α inhibitor PX-478 2HCl (S7612, Selleckchem), ATP citrate lyase inhibitor BMS-303141 (4609, Tocris), fatty acid synthase inhibitor FT113 (S6666, Selleckchem), and BET-p300/CBP dual inhibitor NE02734 (S9648, Selleckchem). Inhibitors were dissolved in DMSO or water, and the cell culture medium was supplemented with the indicated concentrations of the compound or DMSO/water (as control).
To test the dependency of fully transformed lymphomas with Pdcd1 deletion on the released mTOR-HIF1α-glycolysis cascade, Applicants incubated ITK-SYK^+PD-1− cells with small molecule inhibitors of mTOR, HIF1α, or glycolysis^22,23.

[1] = tested on: AP-1 family transcription factors; assay: ATAC-seq transcription factor footprint analysis after inhibitor incubation; assay type: cell-based, mouse; conditions: BMS-303141 5 μM, 3 hours in vitro vs DMSO
Procedure: Preparation of mouse and human ATAC-seq libraries. Ex vivo: For mouse ATAC-seq, ITK-SYK^CD4-creERT2, or ITK-SYK^CD4-creERT2; Pdcd1^−/− mice received a single dose of 2 mg tamoxifen. Five days after injection, single-cell suspensions were generated from the spleens and 50,000 eGFP^+ FACS-sorted cells were used for the transposase reaction. For human ATAC-seq, 50,000 malignant cells from CTCL patients with and without PDCD1 mutation were sorted by FACS as described above. The transposase reaction was performed as previously described^81. […] The reaction was monitored after 4 cycles with qPCR using 5 μl PCR reaction mixture and the same primers in 15 μl total volume (KK4617, Roche). Cycles were added as calculated, then the amplified samples were purified, and size selected using SpeedBeads (GE65152105050250, Sigma) in 22% PEG. […]
ATAC-seq analysis. […] Next, reads were aligned to the mm9 genome using Bowtie2 (v2.4.0)^71. […] To filter properly mapped reads, Applicants used Samtools with the following options: exclude multi-mapped reads (MAPQ<30) and reads with flag 1796 or 1804. Next, Samtools with option “-f 2” was used to filter properly paired reads. […] Next, Applicants filtered for nucleosome-free reads (0-100 bp) as previously described^44. […]

In the case of `O=CC[C@@H](O)[C@H](O)[C@H](O)CO` [2-DG, 2-deoxy-D-glucose], the production of lactate (ITK-SYK^+PD-1− cells) is reported as “reduced the production of lactate”.
`COc1ccc(-c2ccccc2)cc1NS(=O)(=O)c1cc(Cl)cc(Cl)c1O` [BMS-303141] was tested, and the “AP-1 footprints in Pdcd1 deleted cells in comparison to cells with intact PD-1 pathway” value [1] was “de-enriched”.
